Laboratory results taken from patent publication US20130011392A1, “METHOD FOR ASSESSING THE ABILITY OF A PATIENT TO RESPOND TO OR BE SAFELY TREATED BY A NUCLEOSIDE ANALOG BASED-CHEMOTHERAPY” (Assistance Publique Hopitaux De Marseille, priority 2009, published 2013).
Read-outs that look alike come from different tables or passages of the source.

How the values were obtained:
[1] = system: paediatric cancer patients; assay: Treatment-related toxicities in children; type: in vivo, human
Description: Subset 3: 20 patients (12 men/8 women; mean and SD age, 12±7 years) from the Pediatric Oncology Unit of La Timone University Hospital that had been previously treated with gemcitabine-based protocols had their CDA status phenotyped as well (Table 2). Most of these young patients were heavily pre-treated, and gemcitabine was mostly given as part of a Gemox protocol (n=14 patients), or associated with paclitaxel (n=3 patients) or with various other anticancer drugs (e.g.
carboplatine, liposomal doxorubicin) or dexamethasone. In children, mean gemcitabine dose was 1028±190 mg/m^2 (minimum, 600 mg/m^2 —maximum, 1400 mg/m^2). Tumour types were extremely heterogeneous and included osteosarcoma, medulloblastoma, Ewing's sarcoma, and Hodgkin's syndrome.
Toxicities were graded following the standard National Cancer Institute-Common Toxicity Criteria guidelines. Toxicities of grade ≧3 were regarded as “severe”. A toxic event was considered “early” when occurring […] the 1st or the 2nd day of the gemcitabine course, and was considered “late” when occurring after those days.

[2] = system: pancreatic cancers and other digestive localizations; assay: Treatment efficacy in digestive cancer patients by CT imaging / CA19-9 at 3 months; type: in vivo, human; conditions: gemcitabine alone or combined
Protocol: A total of 40 adult patients (21 men/19 women; 61±11 years old) with mostly pancreatic cancers (n=36 patients) and other digestive localizations (n=4 patients) were included in this retrospective study. All patients had been treated with gemcitabine alone (n=23 patients), associated with oxaliplatin (n=7 patients), erlotinib (n=2 patients), capecitabine (n=1 patient) or other drugs, including molecules used in target therapies (n=7 patients). Mean gemcitabine dose was 980 mg/m^2 (minimum: 500 mg/m^2, maximum: 1250 mg/m^2). CDA activity was measured spectrophotometrically from serum samples. Search for three genetic mutations (79A>C, 435T>C and 208G>A) was additionally performed. The cut-off associated with CDA extensiveness (extensive CDA activity) was set at 6 U/mg (e.g., >25% of the mean value of the population). Treatment efficacy was evaluated 3 month after beginning of the chemotherapy by CT imaging, with or without additional monitoring of the CA19-9 tumor marker.

[3] = Animal pharmacokinetics of gemcitabine; type: in vivo, swiss mice; conditions: for clearance: male, Swiss, mouse, plasma, intraperitoneal; for Gemcitabine exposure AUC0-60: gemcitabine 100 mg/kg intraperitoneally; for Increase in gemcitabine exposure in animals with inhibited CDA: inhibited CDA (THU) vs normal CDA
Protocol: (§1) Parent-drug and difluorodeoxyuridine (dFdU) metabolite concentrations in plasma were assayed by UV-HPLC, as described in the literature (10). Elimination rate of gemcitabine was evaluated through a compartmental analysis and a stochastic model, using a home-built algorithm (11). Mean metabolization ratio for gemcitabine was calculated as follows: dFdU (μg/ml)/gemcitabine (μg/ml)×100. Carcass weights were monitored. Drug-induced leucopenia was the marker for gemcitabine-related toxicity. Leucocytes count was performed on day-0, then day-2, day-5 and day-8 post injection using Flow Cytometry analysis.

[4] = system: patients; conditions: cited from earlier work
[5] = system: leucocytes; assay: Animal haematological toxicity monitoring (leucocytes count); type: in vivo, swiss mice; conditions: for Mean leucocytes count: day 5 after gemcitabine 100 mg/kg
Protocol: as §1

[6] = system: adult cancer patients; assay: Treatment-related toxicities in adult cancer patients (NCI-CTC); type: in vivo, human
Description: A total of 150 cancer patients (130 adults—Table 1 and 20 children—Table 2) hospitalized at La Timone University Hospital of Marseille, France, from January 2007 to December 2008, were enrolled in this retrospective, observational study. Written informed consent and local ethic committee approval were obtained prior to performing CDA testing. Patients were divided into 3 subsets: […] These patients were mostly treated for pancreatic (n=40 patients) or gynaecological (n=7 patients) cancers. Other tumour types included liver, lung, vesical, or other localizations. In patients with digestive cancers, gemcitabine was administered as a fixed-dose rate infusion, whereas other patients received a standard rapid infusion. […] Remaining patients were given various drug combinations including capecitabine, fluorouracil (5-FU), herceptin, navelbine, sorafenib, axatinib, and erlotinib. Gemcitabine was given either as a rapid infusion or at fixed-dose rate infusion, depending on tumor location, as described previously. Twenty patients were treated for vesical-urothelial cancers. Other tumour types were pancreatic (n=12 patients), breast (n=12 patients), gynaecological (n=12 patients), and other, including lung, head and neck, liver, and other localisations. Toxicities were graded following the standard National Cancer Institute-Common Toxicity Criteria guidelines. Toxicities of grade ≧3 were regarded as “severe”.

[7] = extensive subset (CDA>6 U/mg, n=8)

Question: Which results are given for `Nc1ccn([C@@H]2O[C@H](CO)[C@@H](O)C2(F)F)c(=O)n1` [gemcitabine, 2′-deoxy-2′,2′-difluorocytidine]?
Answer: Late/cumulative grade-3 anemia ([1]; Subset 3, 20 children): 20%; Late/cumulative grade-3 neutropenia ([1]; Subset 3, 20 children): 20%; Late/cumulative grade-3 thrombopenia ([1]; Subset 3, 20 children): 10%; Early severe toxicities ([1]; Subset 3, 20 children, gemcitabine-based protocols): No early severe toxicities were observed; Tolerance ([1]; children): well tolerated; Non-responders with progressive disease [2, 7]: 75%; Patients with controlled disease [2, 7]: 25%; Patients with controlled disease ([2]; non-extensive subset (CDA<6 U/mg, n=32)): 84.5%; clearance [3]: 3.25 mL/min/kg; clearance ([3]; 100 mg/kg, mice, normal CDA): 12.6 mL/min/kg; Decrease of gemcitabine clearance ([3]; mice with altered CDA function (THU) vs normal): 74%; Gemcitabine exposure AUC0-60 ([3]; mice, inhibited CDA (THU pre-treatment)): 142 µg/mL/min; Gemcitabine exposure AUC0-60 ([3]; mice, normal CDA): 54 µg/mL/min; Increase in gemcitabine exposure in animals with inhibited CDA ([3]; mice): ~3 fold; Increase in gemcitabine exposure in animals with inhibited CDA ([3]; mice, listed as Gemcitabine): 2.6 fold; Severe toxicities reported ([4]; gemcitabine given as a combination (polychemotherapy)): 15-30%; Severe toxicities reported ([4]; gemcitabine monochemotherapy): 5-10%; Outcome by day 8 ([5]; CDA-deficient mice (THU)): all animals were dead; Decrease of leucocytes count ([5]; day 5, CDA-deficient mice (THU)): 65%; Decrease of leucocytes count as compared with untreated animals ([5]; day 5, mice with normal CDA activity): 23%; Mean leucocytes count ([5]; CDA-deficient mice (THU)): 1.5 G/L; Mean leucocytes count ([5]; mice with normal CDA activity): 3.2 G/L; Outcome by day 8 ([5]; mice with normal CDA activity): all animals spontaneously recovered from their toxicities; Patients with severe side-effects ([6]; 66 extra-patients, gemcitabine in combination with another anticancer drug): 14%; Patients with early severe toxicities ([6]; 130 adult patients, gemcitabine-containing protocol, after first or second administration): 12%; Patients with early severe toxicities ([6]; Subset 1, gemcitabine alone, n=64): 11%; Anemia grade 3/4, Early ([6]; Subset 1, monotherapy, n=64): 1 (1.6%) n (%); Anemia grade 3/4, Late ([6]; Subset 1, monotherapy, n=64): 1 (1.6%) n (%); Asthenia grade 3/4, Early ([6]; Subset 1, monotherapy, n=64): 1 (1.6%) n (%); Asthenia grade 3/4, Late ([6]; Subset 1, monotherapy, n=64): 1 (1.6%) n (%); Diarrhea grade 3/4, Early ([6]; Subset 1, monotherapy, n=64): 0 (0%) n (%); Diarrhea grade 3/4, Late ([6]; Subset 1, monotherapy, n=64): 1 (1.6%) n (%); Leucopenia grade 3/4, Early ([6]; Subset 1, monotherapy, n=64): 7 (11%) n (%); Leucopenia grade 3/4, Late ([6]; Subset 1, monotherapy, n=64): 10 (16%) n (%); Neutropenia grade 3/4, Early ([6]; Subset 1, monotherapy, n=64): 6 (9.6%) n (%); Neutropenia grade 3/4, Late ([6]; Subset 1, monotherapy, n=64): 8 (12.8%) n (%); Sepsis grade 3/4, Early ([6]; Subset 1, monotherapy, n=64): 3 (4.8%) n (%); Sepsis grade 3/4, Late ([6]; Subset 1, monotherapy, n=64): 0 (0%) n (%); Thrombopenia grade 3/4, Early ([6]; Subset 1, monotherapy, n=64): 2 (3.2%) n (%); Thrombopenia grade 3/4, Late ([6]; Subset 1, monotherapy, n=64): 2 (3.2%) n (%)
